From PubChem BioAssay (NCI)
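Briefly, cells in 96-well plates were exposed to five compound concentrations for 48 h, and endpoints were estimated by linear interpolation. GI50 is the concentration that inhibits growth by half. At the TGI there is no net growth.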

Key:
Test in all cases: DTP human tumour cell line panel, 48 h
[1] = test system: MALME-3M melanoma
[2] = test system: NCI-H23 lung
[3] = test system: SF-295 CNS
[4] = test system: HCC-2998 colon
[5] = test system: NCI-H460 lung
[6] = test system: SF-268 CNS
[7] = test system: CAKI-1 renal
[8] = test system: HOP-62 NSCLC
[9] = test system: ACHN renal
[10] = test system: SK-OV-3 ovarian
[11] = test system: HOP-92 NSCLC
[12] = test system: SR leukemia
[13] = test system: SK-MEL-5 melanoma
[14] = test system: HS 578T breast
[15] = test system: A498 renal
[16] = test system: UO-31 renal
[17] = test system: CCRF-CEM leukemia
[18] = test system: DU-145 prostate
[19] = test system: RXF 393 renal
[20] = test system: SN12C renal
[21] = test system: T-47D breast
[22] = test system: NCI/ADR-RES ovarian
[23] = test system: K-562 leukemia
[24] = test system: SNB-75 CNS
[25] = test system: MOLT-4 leukemia
[26] = test system: M14 melanoma

Which results are given for Nc1nnc2cc(Cl)ccc2n1?
GI50 [1]: > 100 µM; TGI [1]: > 100 µM; GI50 [2]: > 100 µM; TGI [2]: > 100 µM; GI50 [3]: 74 µM; TGI [3]: > 100 µM; GI50 [4]: > 100 µM; TGI [4]: > 100 µM; GI50 [5]: > 100 µM; TGI [5]: > 100 µM; GI50 [6]: > 100 µM; TGI [6]: > 100 µM; GI50 [7]: > 100 µM; TGI [7]: > 100 µM; GI50 [8]: > 100 µM; TGI [8]: > 100 µM; GI50 [9]: > 100 µM; TGI [9]: > 100 µM; GI50 [10]: > 100 µM; TGI [10]: > 100 µM; GI50 [11]: 3.56 µM; TGI [11]: 47.6 µM; GI50 [12]: > 100 µM; TGI [12]: > 100 µM; GI50 [13]: > 100 µM; TGI [13]: > 100 µM; GI50 [14]: 24.6 µM; TGI [14]: > 100 µM; GI50 [15]: > 100 µM; TGI [15]: > 100 µM; GI50 [16]: 30.2 µM; TGI [16]: > 100 µM; GI50 [17]: > 100 µM; TGI [17]: > 100 µM; GI50 [18]: > 100 µM; TGI [18]: > 100 µM; GI50 [19]: > 100 µM; TGI [19]: > 100 µM; GI50 [20]: 16 µM; TGI [20]: > 100 µM; GI50 [21]: > 100 µM; TGI [21]: > 100 µM; GI50 [22]: > 100 µM; TGI [22]: > 100 µM; GI50 [23]: > 100 µM; TGI [23]: > 100 µM; GI50 [24]: 9.06 µM; TGI [24]: > 100 µM; GI50 [25]: > 100 µM; TGI [25]: > 100 µM; GI50 [26]: > 100 µM; TGI [26]: > 100 µM
